{
  "source": "patent US11707636B2",
  "about": "“Methods and devices for modulating cellular activity using ultrasound” (priority 2008, dated 2023)",
  "key": {"[1]": {"system": "Na^+ transients in CA1 pyramidal neurons", "format": "cell-based, mice"}, "motor cortex [2]": {"system": "motor cortex", "design": "species or system mice", "conditions": "mouse, in vivo"}, "[3]": {"system": "synaptic vesicle exocytosis in hippocampal slice cultures", "format": "cell-based, mice"}, "motor cortex [4]": {"system": "motor cortex", "design": "species or system mice", "conditions": "mouse, in vivo", "remark": "listed apart in the source"}, "[5]": {"system": "Ca^2+ transients (OGB-1 signals) in neurons", "format": "cell-based, mice"}},
  "note": "Entries after “also recorded” stand apart in the source; their conditions may differ.",
  "data": [
    {"smiles": "NC1=N[C@H](O)[C@H]2[C@H]3O[C@]4(O)O[C@@H]([C@@H](O)[C@@]2(N1)[C@@H]4O)[C@]3(O)CO", "note": "[TTX, tetrodotoxin]", "values": [
      {"measurement": "Na^+ transient response (ΔF/F0 CoroNa Green) to USW-1", "setting": "[1]", "value": "blocked"},
      {"measurement": "US-evoked cortical activity", "setting": "motor cortex [2]", "value": "blocked"},
      {"measurement": "exocytosis (spH response) in response to low intensity ultrasound waveforms", "setting": "[3]", "value": "nearly abolishes; also recorded: nearly abolishing"},
      {"measurement": "US-evoked EMG activity / descending corticospinal circuit activity", "setting": "motor cortex [4]", "value": "blocks"},
      {"measurement": "average presynaptic temporal response of OGB-1 to USW-1", "setting": "[5]", "value": "nearly abolishing"}
    ]}
  ]
}
